From article PMC7340540, “Crystal structures and calorimetry reveal catalytically relevant binding mode of coproporphyrin and coproheme in coproporphyrin ferrochelatase” (The FEBS journal, 2019)

Target: T1, LmCpfC (Listeria monocytogenes, UniProt Q8Y565)
T1 construct: gene cpfC; full length in pET21a(+) (BamHI/XhoI), C-terminal 6xHis-tag kept, vector N-terminal residues; E. coli BL21 Gold; 37 kDa theoretical, 38 kDa by MALS; monomer
T1 sequence (Q8Y565 1-309): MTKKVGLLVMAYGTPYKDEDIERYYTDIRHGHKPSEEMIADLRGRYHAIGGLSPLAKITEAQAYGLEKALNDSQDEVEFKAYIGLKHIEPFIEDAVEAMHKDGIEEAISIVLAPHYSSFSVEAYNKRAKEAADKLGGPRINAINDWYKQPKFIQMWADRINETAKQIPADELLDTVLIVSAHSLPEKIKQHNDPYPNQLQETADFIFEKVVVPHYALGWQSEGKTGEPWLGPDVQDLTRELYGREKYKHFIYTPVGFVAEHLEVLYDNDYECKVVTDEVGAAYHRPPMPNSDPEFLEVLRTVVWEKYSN
Assay: stopped-flow UV-vis, […] nm, KD = koff/kon
Format: binding

`CC1=C(CCC(=O)O)c2cc3nc(cc4[nH]c(cc5[nH]c(cc1n2)c(C)c5CCC(=O)O)c(CCC(=O)O)c4C)C(CCC(=O)O)=C3C` [coproporphyrin III] was tested. Which Kd did it give?
The Kd was 2000 nM.
